# Read-outs that look alike come from different tables or passages of the source.
# Key:
# [1] = MTT assay for cytotoxicity; type: cell-based, Human; details: human, HepG2.2.15 cells, half (50%) lethal concentration
# Method in brief: (§1)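 HBV-transfected HepG2.2.15 cells were cultured with compound for 8 days at 37 °C in DMEM/10% FBS, with medium changed on day 4. Viability was read by MTT (4 h, then 12 h lysis, OD570) against control wells. CC50 is the concentration cutting viability by 50%.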
# HBV = HBV DNA content in the supernatant of cell culture (real-time PCR); type: cell-based, hepatitis B virus (HBV); details: inhibition of HBV DNA replication, HepG2.2.15 supernatant, 8 days
# Method in brief: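 HepG2.2.15 cells stably carrying full-length HBV exposed to compounds for 8 days in DMEM with 10% FBS, medium renewed on day 4. Supernatant virion HBV DNA extracted and quantified by real-time PCR against a 1e^7-1e^4 IU/ml standard curve; IC50 calculated.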
# [2] = Tissue distribution in mice; type: in vivo; details: po 10 mg/kg; for concentration at 1 h / concentration at 3 h / concentration at 8 h: mouse
# Experimental: 10 μl of a plasma and tissue sample was placed in a 1.5 ml centrifuge tube, added with 100 μl of an internal standard solution (5.00 ng/ml verapamil and 50.0 ng/ml Glibenclamide solution in acetonitrile), vortexed for 60 seconds, and then centrifuged for 3 min (at 12000 rpm); 75 μl of the supernatant was transferred to a 96-well plate loaded with an equal volume of water, and shaken for mixing well and then analyzed. The injection volume was 10 μl. Internal standard: an appropriate amount of verapamil and glibenclamide standards were dissolved and diluted in dimethyl sulfoxide (DMSO), shaken for mixing well, and prepared into a stock solution with a mass concentration of 2000 μg/ml, which was further diluted into internal standard working solutions of 5.00 ng/ml and 50.0 ng/ml. Stock solution: an appropriate amount of the compound was weighted and formulated into a 2.00 mg/ml stock solution with DMSO. Working solution: The stock solution was stepwisely diluted to obtain the solutions at each gradient concentration. 5.00 μl of reference standard working solution was added to 45.0 μl of a mice blank plasma and blank tissue. Then it was treated according to the method described in the section of “Sample pretreatment method”. Administration solution: a certain amount of a compound was precisely weighed and formulated into a 2.00 mg/ml milky white suspension in a ratio of 2.5% DMSO+97.5% (0.5% MC). Approximately 0.1 ml of orbital blood and liver was collected in EDTAK2 for anticoagulation from each animal that had been anesthetized with isoflurane. For the PO group, the blood was collected at 1 h, 3 h, and 8 h after administration of the test compound. After collection, the blood sample was analyzed by using comparative compounds I-70 and I-88.
# HBV capsid = biological target: T1, HBV capsid (Hepatitis B virus genotype D subtype ayw, UniProt P03146); experiment: HBV capsid assembly, non-denaturing agarose gel electrophoresis; type: cell-based; details: FIG. 1; for content of HBV DNA in the capsid: Southern blot with HBV-specific probes; for generation of abnormal capsid (electrophoretic migration): non-denaturing agarose gel, anti-HBcAg Western blot
# T1 construct: expressed in transfected cells
# Experimental: 1×10^6 dispersed cells were added with […] of cell lysate (50 mM Tris-HCl pH 7.5, 1 mM EDTA, 0.5% Nonidet P-40), and lysed on ice for 15 min, with vortexing every 5 min to make sure that the cells were sufficiently lysed. The lysed cells were centrifuged at 10,000×g for 10 min at 4° C. to remove nuclei and cell debris. 20 μl of the cell lysate was added into the well of 1.2% or 1.8% agarose gel. Electrophoresis was run at 70V for 2.5 h at 4° C. […] After electrophoresis, the membrane-transferring was performed by siphon overnight. One sample was transferred to a nitrocellulose membrane (Amersham™ Hybond-ECL, GE), and the capsid was detected with anti-HBcAg antibody (Abcam) using Western blot method; another sample was in situ denatured with a denaturing solution (1.5 M NaCl, 0.5 M NaOH) for 45 min, neutralized with a neutralizing solution (1.5 M NaCl, 1 M Tris-HCl pH 7.4) for 45 min, and transferred to a nylon membrane (Amersham™ Hybond-N+, GE), and then the level of nucleic acid in the capsid was detected with HBV-specific probes by using Southern blot method.
# HepG2.2.15 cells = experiment: MTT assay for cytotoxicity; type: cell-based, Human; details: 8 days, half (50%) lethal concentration
# Method in brief: as §1
# [3] = Hepatitis B virus, HepG2.2.15, 192 h
# [4] = liver, 1 h, read-out: Mean drug concentration, Liver
# [5] = liver, 3 h, read-out: Mean drug concentration, Liver
# [6] = liver, 8 h, read-out: Mean drug concentration, Liver
# [7] = plasma, 1 h, read-out: Mean drug concentration, Plasma
# [8] = plasma, 3 h, read-out: Mean drug concentration, Plasma
# [9] = plasma, 8 h, read-out: Mean drug concentration, Plasma
# T1 sequence (P03146 whole entry): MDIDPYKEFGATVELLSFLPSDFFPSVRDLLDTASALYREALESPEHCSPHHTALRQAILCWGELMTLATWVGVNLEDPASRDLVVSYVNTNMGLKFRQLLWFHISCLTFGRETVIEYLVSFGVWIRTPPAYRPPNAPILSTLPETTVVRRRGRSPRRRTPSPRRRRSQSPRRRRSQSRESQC
SMILES,CC50 at 8 days [1],IC50 (HBV; [3]),"concentration at 1 h [2, 4]","concentration at 3 h [2, 5]","concentration at 1 h [2, 7]","concentration at 3 h [2, 8]","concentration at 8 h [2, 9]",content of HBV DNA in the capsid (HBV capsid),generation of abnormal capsid (electrophoretic migration) (HBV capsid),also measured
N#Cc1ccc(Cn2nc(-c3ccc(C(F)(F)F)nc3F)c3ccccc3c2=O)cc1 [IV-15],> 100000 nM,270 nM,7270 ng/g,4460 ng/g,549 ng/mL,437 ng/mL,257 ng/mL,,,"concentration at 8 h [2, 6]: 2800 ng/g; liver targeting [2]: good liver targeting in mice"
O=c1c2ccccc2c(-c2cccnc2F)nn1Cc1ccc(Cl)cc1 [Compound I-3],> 100000 nM,500 nM,,,,,,significantly reduced,induce the generation of an abnormal capsid with faster electrophoretic migration speed,
O=c1c2ccccc2c(-c2ccc(F)nc2F)nn1Cc1ccc(Cl)cc1 [Compound I-9],40700 nM,300 nM,,,,,,significantly reduced,induce the generation of an abnormal capsid with faster electrophoretic migration speed,
"Cc1ccc(-c2cc(C)c(=O)n(Cc3ccc(Cl)cc3)n2)c(F)n1 [I-88, reference compound]",,,34.2 ng/g,9.64 ng/g,169 ng/mL,180 ng/mL,0.993 ng/mL,,,"Mean drug concentration, Liver ([2]; 8 h): BLQ"
Nc1ccc(-c2nn(Cc3ccc(Cl)cc3)c(=O)c3ccccc23)c(F)n1 [Compound I-11],22600 nM,900 nM,1220 ng/g,1410 ng/g,33.3 ng/mL,32.5 ng/mL,23 ng/mL,significantly reduced,induce the generation of an abnormal capsid with faster electrophoretic migration speed,"concentration at 8 h [2, 6]: 815 ng/g; liver targeting [2]: good liver targeting in mice"
N#Cc1ccc(Cn2nc(-c3ccc(F)nc3F)c3ccccc3c2=O)cc1 [IV-5],> 100000 nM,120 nM,1030 ng/g,1050 ng/g,154 ng/mL,63.2 ng/mL,80.1 ng/mL,,,"concentration at 8 h [2, 6]: 1190 ng/g; liver targeting [2]: good liver targeting in mice"
CN(C)CCNc1ccc(-c2nn(Cc3ccc(C#N)cc3)c(=O)c3ccccc23)c(F)n1 [IV-37],,,,,,,,,,CC50 (HepG2.2.15 cells): 86500 nM; IC50 (HBV): 2180 nM
[2H]C(c1ccc(Cl)cc1)n1nc(-c2ccc(C)nc2F)c2ccccc2c1=O (stereo not drawn) [Compound I-24],> 100000 nM,400 nM,,,,,,significantly reduced,induce the generation of an abnormal capsid with faster electrophoretic migration speed,
COc1ccc(-c2nn(Cc3ccc(Cl)cc3)c(=O)c3ccccc23)c(F)n1 [Compound I-20],,,,,,,,,,CC50 (HepG2.2.15 cells): 33300 nM; IC50 (HBV): 1300 nM
COc1ccc(-c2nn(Cc3ccc(Cl)cc3)c(=O)c3ccccc23)c(F)n1 [Compound I-4],,,,,,,,,,CC50 (HepG2.2.15 cells): > 100000 nM; IC50 (HBV): 3100 nM
"Cc1cc(-c2ccc(F)nc2F)nn(Cc2ccc(Cl)cc2)c1=O [I-70, reference compound]",,,,,161 ng/mL,71.7 ng/mL,17.3 ng/mL,,,"Mean drug concentration, Liver ([2]; 1 h): BLQ^a; Mean drug concentration, Liver ([2]; 3 h): BLQ; Mean drug concentration, Liver ([2]; 8 h): BLQ"
[2H]C(c1ccc(Cl)cc1)n1nc(-c2ccc(F)nc2F)c2ccccc2c1=O (stereo not drawn) [Compound I-26],> 100000 nM,900 nM,,,,,,significantly reduced,induce the generation of an abnormal capsid with faster electrophoretic migration speed,
CNc1ccc(-c2nn(Cc3ccc(Cl)cc3)c(=O)c3ccccc23)c(F)n1 [Compound I-12],15700 nM,600 nM,,,,,,significantly reduced,induce the generation of an abnormal capsid with faster electrophoretic migration speed,
Cc1ccc(-c2nn(Cc3ccc(Cl)cc3)c(=O)c3ccccc23)c(F)n1 [Compound I-10],81800 nM,100 nM,476 ng/g,318 ng/g,61 ng/mL,12.5 ng/mL,,significantly reduced,induce the generation of an abnormal capsid with faster electrophoretic migration speed,"concentration at 8 h [2, 6]: 2.91 ng/g; liver targeting [2]: good liver targeting in mice; Mean drug concentration, Plasma ([2]; 8 h): BLQ"

# Reference: patent US11040952B2, “Phthalazinone compound, method for preparation thereof, pharmaceutical composition thereof, and use thereof” (SHANGHAI INSTITUTE OF MATERIA MEDICA, CHINESE ACADEMY OF …, priority 2017, dated 2021)
